Data on eight compounds can be found in patent US20250215029A1 (Recludix Pharma, Inc., priority 2022, published 2025).

For the first experiment, the target named is T1, pY641-STAT6 in PBMC (Homo sapiens, UniProt P42226).
T1 construct: Cryopreserved Peripheral Blood Mononuclear Cells (PBMC) are from AllCells; host or cells: cryopreserved PBMC
T1 sequence (P42226 1-847): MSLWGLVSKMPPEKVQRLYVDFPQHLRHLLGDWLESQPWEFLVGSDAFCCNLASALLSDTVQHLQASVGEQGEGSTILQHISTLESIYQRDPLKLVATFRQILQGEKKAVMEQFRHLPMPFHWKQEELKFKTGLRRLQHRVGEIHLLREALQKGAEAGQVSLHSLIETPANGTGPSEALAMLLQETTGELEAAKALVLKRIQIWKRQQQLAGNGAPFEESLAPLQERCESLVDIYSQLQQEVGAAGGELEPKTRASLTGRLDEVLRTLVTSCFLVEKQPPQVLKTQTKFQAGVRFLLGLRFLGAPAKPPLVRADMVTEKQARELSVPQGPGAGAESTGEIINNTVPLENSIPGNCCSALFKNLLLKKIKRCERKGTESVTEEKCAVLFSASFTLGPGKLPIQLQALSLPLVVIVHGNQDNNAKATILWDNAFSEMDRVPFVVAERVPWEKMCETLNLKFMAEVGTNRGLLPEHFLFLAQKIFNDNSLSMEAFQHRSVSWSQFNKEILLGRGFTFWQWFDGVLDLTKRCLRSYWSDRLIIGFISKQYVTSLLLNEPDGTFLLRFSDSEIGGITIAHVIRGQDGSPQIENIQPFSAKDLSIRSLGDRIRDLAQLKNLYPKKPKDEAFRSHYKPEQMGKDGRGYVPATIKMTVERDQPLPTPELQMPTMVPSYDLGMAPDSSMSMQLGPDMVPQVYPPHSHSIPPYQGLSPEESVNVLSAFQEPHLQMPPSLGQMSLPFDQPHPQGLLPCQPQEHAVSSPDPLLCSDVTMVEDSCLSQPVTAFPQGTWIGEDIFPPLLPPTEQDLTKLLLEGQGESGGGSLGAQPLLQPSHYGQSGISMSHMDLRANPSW
Put plainly: MSD-pSTAT-PBMC Assay (pSTAT6, IL-4 stimulated). Conditions: PBMC, compound 3 hrs, then 1 ng/mL IL-4 for 10 min; Table 115; read-out: STAT6. The class given is cell-based. An excerpt:
Cryopreserved Peripheral Blood Mononuclear Cells (PBMC) are from AllCells. Recombinant Human IL-4 and IL-6 are from Peprotech. Mouse monoclonal anti-STAT3 antibody, rabbit monoclonal anti-pY705-STAT3 antibody, rabbit monoclonal Anti-pY641-STAT6 antibody, and lysis buffer are from Cell Signaling Technology (CST). Mouse monoclonal anti-STAT6 antibody is from BioLegend. Assay plates, blocker, and anti-rabbit secondary antibody are from Meso Scale Discovery (MSD).
Cyropreserved PBMCs were thawed out and allowed to recover overnight in IMDM+10% heat-inactivated FBS prior to plating 50,000 (STAT3) or 25,000 (STAT6) cells per well in 96-well U-bottom tissue culture plates. Cells were treated with compound for 3 hrs, then stimulated with 10 ng/mL IL-6 (STAT3) or 1 ng/mL IL-4 (STAT6) for 10 min. Cells were then spun down and washed with ice-cold PBS prior to lysing the cell pellet with 1× lysis buffer (CST) with 1× HALT protease and phosphatase inhibitor cocktail (Thermo). Lysates were transferred to and incubated overnight at 4° C. with shaking in QuickPlex 96-well high bind assay plates (MSD) pre-coated overnight with 30 μL per well of 0.6 μg/mL mouse monoclonal anti-STAT3 antibody (STAT3) or 2 μg/mL mouse monoclonal anti-STAT6 antibody (STAT6) in 1× PBS, and pre-blocked for 1 hour with 3% Blocker-A (MSD). Captured protein in the assay plates were then washed and probed with 25 μL per well of […] rabbit monoclonal anti-pY705-STAT3 antibody (STAT3) or 0.18 μg/ml rabbit monoclonal Anti-pY641-STAT6 antibody (STAT6) in 1% Blocker-A for 1 hour at room temperature with shaking, then washed and probed with 25 ul per well of 1 ug/ml Sulfo-TAG Labeled Goat Anti-Rabbit Antibody (MSD) in 1% Blocker-A for 1 hour at room temperature with shaking. Assay plates were then washed and 150 μL of 1× Read Buffer-T (MSD) was added to each well prior to reading on an SQ120 MSD Plate Reader. Assay signal from each sample was subtracted by the signal from unstimulated control wells and normalized to DMSO control wells. IC50 values were calculated using Graph Pad Prism Dose-Response Nonlinear Regression with variable slope. For both pSTAT3 and pSTAT6 A=≤100 nM; B 100-1000 nM; C=>1000-3000 nM; D=>3 μM; and NT=Not Tested.
For `CCCOC(=O)[C@H](C)NP(=O)(Oc1ccccc1)[C@@H](F)c1ccc2sc(C(=O)N[C@H]3CCCC[C@H]4CC[C@@H](C(=O)N5C[C@H](c6cccnc6)[C@@H](C#N)C56CC6)N4C3=O)cc2c1` (some centres unmarked) [Compound 365], the IC50 was below 100 nM.

For the compound `COCCOCC(=O)SCCOP(=O)(OCCSC(=O)COCCOC)C(F)(F)c1ccc2ccc(C(=O)N[C@H]3CCCC[C@H]4CC[C@@H](C(=O)N5C[C@@H](C#N)[C@H](c6cc[nH]c(=O)c6)C5)N4C3=O)cc2c1` (single isomer, unassigned) [Compound 1013], the IC50 is 100 to 1000 nM.

Still in this experiment, the particulars now being: STAT6, PBMC, compound 3 hrs, then 1 ng/mL IL-4 for 10 min; Table 115.
In turn, `CCCOC(=O)[C@H](C)NP(=O)(Oc1c(C)cccc1C)[C@H](F)c1ccc2sc(C(=O)N[C@H]3CCC[C@H]4CC[C@@H](C(=O)N5C[C@@H](c6cccnc6)CC56CC6)N4C3=O)cc2c1` (stereo partly drawn) [Compound 359, propyl ((2,6-dimethylphenoxy) ((S)-fluoro(2-(((3S,6S,9aS)-5-oxo-3-((R)-6-(pyridin-3-yl)-4-azaspiro[2.4]heptane-4-carbonyl)octahydro-1H-pyrrolo[1,2-a]azepin-6-yl)carbamoyl)benzo [b]thiophen-5-yl)methyl)phosphoryl)-L-alaninate] had an IC50 below 100 nM.

Compound `COCCOC(=O)[C@H](C)NP(=O)(Oc1ccccc1)[C@@H](F)c1ccc2sc(C(=O)N[C@H]3CCCC[C@H]4CC[C@@H](C(=O)N5C[C@@H](c6cccnc6)CC56CC6)N4C3=O)cc2c1` (stereo partly drawn) [Compound 378, 2-methoxyethyl (((R)-fluoro(2-(((3S,6S,10aS)-5-oxo-3-((R)-6-(pyridin-3-yl)-4-azaspiro[2.4]heptane-4-carbonyl)decahydropyrrolo[1,2-a]azocin-6-yl)carbamoyl)benzo [b]thiophen-5-yl)methyl)(phenoxy)phosphoryl)-L-alaninate] displayed an IC50 below 100 nM.

For the compound `CCCOC(=O)[C@H](C)NP(=O)(Oc1ccccc1)C(F)c1ccc2sc(C(=O)N[C@H]3CCCC[C@H]4CC[C@@H](C(=O)N5C(=O)N(c6cccnc6)C(=O)C56CCC6)N4C3=O)cc2c1` (stereo partly drawn) [Compound 992, propyl (((2-(((3S,6S,10aS)-3-(6,8-dioxo-7-(pyridin-3-yl)-5,7-diazaspiro[3.4]octane-5-carbonyl)-5-oxodecahydropyrrolo [1,2-a]azocin-6-yl)carbamoyl)benzo [b]thiophen-5-yl)fluoromethyl) (phenoxy)phosphoryl)-L-alaninate], the IC50 lay within 100 to 1000 nM.

With `C[C@H](NP(=O)(Oc1ccccc1)[C@@H](F)c1ccc2sc(C(=O)N[C@H]3CCCC[C@H]4CC[C@@H](C(=O)N5C[C@@H](c6cccnc6)CC56CC6)N4C3=O)cc2c1)C(=O)OCC1COC1` (stereo partly drawn) [Compound 374, oxetan-3-ylmethyl (((R)-fluoro(2-(((3S,6S,10aS)-5-oxo-3-((R)-6-(pyridin-3-yl)-4-azaspiro[2.4]heptane-4-carbonyl)decahydropyrrolo[1,2-a]azocin-6-yl)carbamoyl)benzo [b]thiophen-5-yl)methyl)(phenoxy)phosphoryl)-L-alaninate], the IC50 was below 100 nM.

Consider `CCCOC(=O)[C@H](C)NP(=O)(Oc1ccccc1)[C@@H](F)c1ccc2sc(C(=O)N[C@H]3CCCC[C@H]4CC[C@@H](C(=O)N5C[C@H](c6cncc(Cl)c6)[C@@H](C#N)C56CC6)N4C3=O)cc2c1` (single isomer, unassigned) [Compound 371], for which the IC50 fell in the range of 1000 to 3000 nM.

Take `CCCOC(=O)[C@H](C)NP(=O)(Oc1ccccc1)C(F)c1ccc2sc(C(=O)N[C@H]3CCCC[C@H]4CC[C@@H](C(=O)N5C(=O)N(c6cncc(F)c6)C(=O)C56CC6)N4C3=O)cc2c1` (stereo partly drawn) [Compound 473, propyl ((fluoro(2-(((3S,6S,10aS)-3-(6-(5-fluoropyridin-3-yl)-5,7-dioxo-4,6-diazaspiro[2.4]heptane-4-carbonyl)-5-oxodecahydropyrrolo [1,2-a]azocin-6-yl)carbamoyl)benzo [b]thiophen-5-yl)methyl)(phenoxy)phosphoryl)-L-alaninate]: the IC50 is above 3000 nM.
